Series [1] concerns Monochoria vaginalis, Presl. The experiment in a line: Preemergence weed control under flooded paddy conditions, MOOVA (Monochoria). Also: meaning of each grade not given here. The conditions noted are these: preemergence, flooded paddy. It counts as in vivo.
The test system of series [2] is Oryza sativa, (L.) Tebonnet. Description: Rice tolerance to post-transplant applications under flooded paddy conditions (Example 187), ORYSAT (Rice, Tebonnet). As to herbicidal effect rating ORYSAT: meaning of each grade not given here.
The test system of series [3] is Cyperus serotinus, Rottb. The experiment in a line: Preemergence weed control under flooded paddy conditions, CYPSE (Flatsedge). Also: meaning of each grade not given here. It counts as in vivo. Conditions: preemergence.
For series [4], the system named is Echinochloa oryzoides (Ard.) Fritsch. Description: Preemergence weed control under flooded paddy conditions, ECHORC (Watergrass (Calif.)). Also: meaning of each grade not given here. It counts as in vivo. The conditions noted are these: preemergence, flooded paddy.
The subject of the next series is Sagittaria pygmaea, L. The experiment in a line: Preemergence weed control under flooded paddy conditions, SAGPY (Arrowhead (Pygmaea)). Also: meaning of each grade not given here. The series is classed as in vivo. The conditions noted are these: preemergence, flooded paddy.
Another series concerns Cyperus iria. Description: Preemergence weed control under flooded paddy conditions, CYPIR (Rice Flatsedge). Also: meaning of each grade not given here. The series is classed as in vivo. The conditions noted are these: preemergence, flooded paddy.
Where [5] appears, read: Rate 0.0320 kg/ha, rated three to four weeks after treatment.
[6] abbreviates: Rate 0.0620 kg/ha, rated three to four weeks after treatment.
Where [7] appears, read: Rate 0.1250 kg/ha, rated three to four weeks after treatment.
The mark [8] stands for this setting: Rate 0.2500 kg/ha, rated three to four weeks after treatment.
The mark [9] stands for this setting: Rate 0.0320 kg/ha, rated 3-4 weeks after treatment.
The mark [10] stands for this setting: Rate 0.0620 kg/ha, rated 3-4 weeks after treatment.
The mark [11] stands for this setting: Rate 0.1250 kg/ha, rated 3-4 weeks after treatment.
Setting [12] is: Rate 0.2500 kg/ha, rated 3-4 weeks after treatment.
Setting [13] is: 0.0313 kg/ha, rated three to four weeks after treatment.
Where [14] appears, read: 0.0625 kg/ha, rated three to four weeks after treatment.
Setting [15] is: 0.1250 kg/ha, rated three to four weeks after treatment.
[16] abbreviates: 0.2500 kg/ha, rated three to four weeks after treatment.

Consider 5 molecules from EP0908457B1, “3-(1,2-benzisothiazol- and isoxazol-5-Y1)-2,4(1H,3H)-pyrimidinedione or thione and 3-(1,2-benzisothiazol- and isoxazol-5-y1)-4(3H)-pyrimidinone or thione herbicidal agents” (BASF AKTIENGESELLSCHAFT, priority 1997, dated 1999).

In the case of `Cn1c(C(F)(F)F)cc(=O)n(-c2ccc3snc(C(C#N)=Cc4ccccn4)c3c2)c1=O` [Example 592, 1,2-Benzisothiazole-3-acetonitrile, 5-[3,6-dihydro-3-methyl-2,6-dioxo-4-(trifluoromethyl)-1(2H)-pyrimidinyl]-alpha-(2-pyridylmethylene)-], the “herbicidal effect rating, MOOVA” value is recorded as 8.0 in series [1] (setting [5]), 9.0 in series [1] (setting [6]), 9.0 in series [1] (setting [7]) and 9.0 in series [1] (setting [8]). In addition, the “herbicidal effect rating ORYSAT” value in series [2] (setting [5]) is 2.0; in series [2] (setting [6]), 2.0; in series [2] (setting [7]), 4.0; in series [2] (setting [8]), 4.0. Further, the “herbicidal effect rating, CYPSE” value in series [3] (setting [5]) and in series [3] (setting [7]) was 0.0 in each case. Besides, the “herbicidal effect rating, ECHORC” value in series [4] (setting [5]) is reported as 0.0; in series [4] (setting [6]) it was 3.0; in series [4] (setting [7]), 4.0; in series [4] (setting [8]), 5.0. The “herbicidal effect rating, SAGPY” value was found to be 0.0 in the series on Sagittaria pygmaea, L. (setting [5]); 3.0 with Sagittaria pygmaea, L. (setting [6]); 3.0 with Sagittaria pygmaea, L. (setting [7]). The “herbicidal effect rating, CYPIR” value is listed as 2.0 with Cyperus iria (setting [5]), 3.0 in the series with Cyperus iria (setting [6]), 4.0 in the series with Cyperus iria (setting [7]) and 6.0 in the series with Cyperus iria (setting [8]).

Consider `Cc1nsc2ccc(-n3c(=O)cc(C(F)(F)F)n(CCF)c3=O)cc12` [Example 516, 2,4(1H,3H)-Pyrimidinedione, 1-(2-fluoroethyl)-3-(3-methyl-1,2-benzisothiazol-5-yl)-6-(trifluoromethyl)-], for which the “herbicidal effect rating, MOOVA” value in series [1] (setting [9]) is reported as 4.0; in series [1] (setting [10]), 6.0; in series [1] (setting [11]), 8.0; in series [1] (setting [12]) it was 9.0. In addition, the “herbicidal effect rating ORYSAT” value in series [2] (setting [9]) turned out to be 0.0; in series [2] (setting [10]), 1.0; in series [2] (setting [11]) it was 2.0; in series [2] (setting [12]) it was 3.0. Also, the “herbicidal effect rating, CYPSE” value in series [3] (setting [9]), in series [3] (setting [10]), in series [3] (setting [11]) and in series [3] (setting [12]) was 0.0 in each case. Further, the “herbicidal effect rating, ECHORC” value in series [4] (setting [9]), in series [4] (setting [10]), in series [4] (setting [11]) and in series [4] (setting [12]) was 0.0 each time. In addition, the “herbicidal effect rating, SAGPY” value in the series with Sagittaria pygmaea, L. (setting [9]) turned out to be 0.0; in the series with Sagittaria pygmaea, L. (setting [10]) it was 0.0; in the series with Sagittaria pygmaea, L. (setting [11]), 0.0; in the series with Sagittaria pygmaea, L. (setting [12]), 0.0. Moreover, the “herbicidal effect rating, CYPIR” value in the series on Cyperus iria (setting [9]) was 0.0; with Cyperus iria (setting [10]), 0.0; with Cyperus iria (setting [11]), 0.0; in the series on Cyperus iria (setting [12]), 2.0.

On to `C#CCC(C#N)(CC#C)c1nsc2ccc(-n3c(=O)cc(C(F)(F)F)n(C)c3=O)cc12` [Example 581, 1,2-Benzisothiazole-3-acetonitrile, 5-[3,6-dihydro-3-methyl-2,6-dioxo-4-(trifluoromethyl)-1(2H)-pyrimidinyl]-alpha,alpha-di-2-propynyl-], for which the “herbicidal effect rating, MOOVA” value is 4.5 in series [1] (setting [5]), 4.5 in series [1] (setting [6]), 9.0 in series [1] (setting [7]) and 9.0 in series [1] (setting [8]). Besides, the “herbicidal effect rating ORYSAT” value in series [2] (setting [5]) is given as 1.5; in series [2] (setting [6]) it was 3.5; in series [2] (setting [7]) it was 6.0; in series [2] (setting [8]), 7.0. Besides, the “herbicidal effect rating, CYPSE” value in series [3] (setting [5]) is 1.0; in series [3] (setting [6]) it was 1.5; in series [3] (setting [7]) it was 6.0; in series [3] (setting [8]) it was 8.0. Further, the “herbicidal effect rating, ECHORC” value came out at 6.0 in series [4] (setting [5]), 8.5 in series [4] (setting [6]), 9.0 in series [4] (setting [7]) and 9.0 in series [4] (setting [8]). Moreover, the “herbicidal effect rating, SAGPY” value with Sagittaria pygmaea, L. (setting [5]) was 3.0; in the series with Sagittaria pygmaea, L. (setting [6]), 9.0; with Sagittaria pygmaea, L. (setting [7]) it was 9.0; in the series with Sagittaria pygmaea, L. (setting [8]), 9.0. For the same molecule, the “herbicidal effect rating, CYPIR” value in the series with Cyperus iria (setting [5]) was 3.0; in the series with Cyperus iria (setting [6]), 4.5; with Cyperus iria (setting [7]), 9.0; with Cyperus iria (setting [8]) it was 9.0.

As to `Cc1ccc(OC(C)C#N)c(-c2nsc3ccc(-n4c(=O)cc(C(F)(F)F)n(C)c4=O)cc23)c1` (stereo not drawn) [Example 58, 3-{3-[6-(1-Cyanoethoxy)-m-tolyl]-1,2-benzisothiazol-5-yl}-1-methyl-6-(trifluoromethyl)-2,4(1H,3H)-pyrimidinedione], the “herbicidal effect rating, MOOVA” value in series [1] (setting [13]), in series [1] (setting [14]), in series [1] (setting [15]) and in series [1] (setting [16]) was 9.0 each time. Further, the “herbicidal effect rating, ORYSAT (rice tolerance)” value in series [2] (setting [13]) came to 2.0; in series [2] (setting [14]), 2.0; in series [2] (setting [15]), 3.0; in series [2] (setting [16]), 5.0. In addition, the “herbicidal effect rating, CYPSE” value in series [3] (setting [13]), in series [3] (setting [14]), in series [3] (setting [15]) and in series [3] (setting [16]) was 0.0 throughout. Also, the “herbicidal effect rating, ECHORC” value in series [4] (setting [13]), in series [4] (setting [14]), in series [4] (setting [15]) and in series [4] (setting [16]) was 9.0 throughout. Moreover, the “herbicidal effect rating, SAGPY” value with Sagittaria pygmaea, L. (setting [13]) was found to be 0.0; with Sagittaria pygmaea, L. (setting [14]), 0.0; with Sagittaria pygmaea, L. (setting [15]) it was 0.0; in the series with Sagittaria pygmaea, L. (setting [16]), 0.0. The “herbicidal effect rating, CYPIR” value with Cyperus iria (setting [13]), in the series with Cyperus iria (setting [14]), in the series on Cyperus iria (setting [15]) and with Cyperus iria (setting [16]) was 9.0 each time.

With `CCCCS(=O)(=O)NC(=O)COc1ccc(C)cc1-c1nsc2ccc(-n3c(=O)cc(C(F)(F)F)n(C)c3=O)cc12` [Example 573, Acetamide, N-(butylsulfonyl)-2-{{2-{5-[3,6-dihydro-3-methyl-2,6-dioxo-4-(trifluoromethyl)-1(2H)-pyrimidinyl]-1,2-benzisothiazol-3-yl}-p-tolyl}oxy}-], the “herbicidal effect rating, MOOVA” value in series [1] (setting [5]), in series [1] (setting [6]), in series [1] (setting [7]) and in series [1] (setting [8]) was 9.0 in each case. For the same molecule, the “herbicidal effect rating ORYSAT” value was 0.0 in series [2] (setting [5]), 0.0 in series [2] (setting [6]), 0.0 in series [2] (setting [7]) and 1.0 in series [2] (setting [8]). The “herbicidal effect rating, CYPSE” value turned out to be 0.0 in series [3] (setting [5]), 0.0 in series [3] (setting [6]), 0.0 in series [3] (setting [7]) and 4.0 in series [3] (setting [8]). The “herbicidal effect rating, ECHORC” value is recorded as 6.0 in series [4] (setting [5]), 7.0 in series [4] (setting [6]), 7.0 in series [4] (setting [7]) and 7.0 in series [4] (setting [8]). The “herbicidal effect rating, SAGPY” value in the series on Sagittaria pygmaea, L. (setting [5]) is reported as 0.0; with Sagittaria pygmaea, L. (setting [6]) it was 0.0; in the series on Sagittaria pygmaea, L. (setting [7]) it was 0.0; in the series on Sagittaria pygmaea, L. (setting [8]), 2.0. In addition, the “herbicidal effect rating, CYPIR” value with Cyperus iria (setting [5]) worked out at 0.0; with Cyperus iria (setting [6]), 3.0; with Cyperus iria (setting [7]), 5.0; in the series with Cyperus iria (setting [8]), 5.0.
